Legend:
[1] = system: rat ischaemic gastrocnemius muscle; assay: Oxygen tension (pO2) of rat ischaemic gastrocnemius muscle; format: in vivo; details: 0.5 mg/kg administered intravenously; ischaemic hindlimb gastrocnemius muscle, anaesthetized rats; n=12; p<0.01 signed rank test
[2] = target: cAMP phosphodiesterase of rat brain; assay: Inhibitory activity on cAMP phosphodiesterase of rat brain (Dixon plot); format: biochemical; details: homogenates of rat brain; 0.31 μM cyclic AMP as substrate; extrapolated from Dixon plot; read-out: apparent Ki
Description: The activity of cyclic AMP phosphodiesterase in homogenates of rat brain was measured in the presence of various concentrations of the compound 1,3-di-n-butyl-7-(2-oxypropyl)xanthine using 0.31 μM cyclic AMP as substration The reciprocal of the reaction rate was plotted on the y axis against each concentration of the compound on the x axis (Dixon plot). The apparent Ki value was estimated by extrapolating the steeper linear portion of the Dixon plot to the x axis and obtaining the negative intercept on the x axis.

[3] = system: Triethyltin-induced cerebral oedema; assay: Triethyltin-induced cerebral oedema in the rat; format: in vivo; details: 2×50 mg/kg orally, twice daily for 5 days of triethyltin intoxication; Wistar rats; brain water content; p<0.05 (student's t-test)
Description: The cerebral oedema is induced by oral administrations repeated for 5 consecutive days--one administration per day--of triethyltin chloride at a dose of 2 mg/kg. The test compound is also administered orally twice daily as aqueous solution or suspension at a dose of 1 ml/100 g body-weight; these administrations are given during the 5 days of intoxication with tin. Three groups of 10 male specific pathogen-free (SPF) Wistar rats of 280±10 g body-weight are used:
1 group intoxicated with triethyltin
1 group intoxicated with triethyltin and treated with the studied compound The rats are killed on the evening of the fifth day; the brain is removed, weighed fresh and after desiccation to constant weight and the water content of each brain is calculated [H2 O]=fresh weight-dry weight.
The following are then calculated the mean water content (M+Sm %) of each group; the protection index P due to the administered compound: [formula]

[4] = system: recall latency in the gerbil following transient forebrain ischaemia; assay: Gerbil Ischaemic Deficit Passive Avoidance Test; format: in vivo, Mongolian gerbils; details: Ischaemia and Test Compound, 10 mg/kg p.o., seven administrations; gerbils after 5 min bilateral carotid ligation; significantly different from ischaemic controls (p<0.05)
Description: Mongolian gerbils were conditioned to avoid entering a dark compartment by means of a footshock (maximally 50 V, 2 s duration) received when entering from the light section of a two compartment box. Recollection of the footshock was examined 24 h later by replacing the gerbils in the two compartment box and measuring the recall latency, the time taken to re-enter the dark compartment.
A learning or memory deficit was induced in the gerbils by a transient (5 min) bilateral carotid artery ligation, performed 24 h prior to conditioning, under light hexobarbital anaesthesia.
Compounds, being examined for an effect on learning or memory in gerbils which had undergone carotid occlusion, were administered seven times during the experiment The initial administration was during the period of forebrain ischaemia, the third and seventh administrations were 10 min prior to conditioning and recall testing, respectively, and the remainder were given at intermediate time points.
A long recall latency indicates good information acquisition or retrieval.

`CCCCn1c(=O)c2c(ncn2CC(C)=O)n(CCCC)c1=O` [1,3-di-n-butyl-7-(2-oxypropyl)xanthine] was tested, and the “mean (±SEM) increase in pO2” value [1] was 5.7±2.1 torr, the Ki [2] was 64 µM and the “protection index P” value [3] was 65%. For the same compound, the “Percentage of animals with recall latencies >60s” value [4] was 36.

Reference: US4784999A, “Novel treatment” (Beecham Wuelfing GmbH & Co. KG, priority 1986, dated 1988)
